Starred links: 1 amine or outer side, 2 acyl side, 3 side chain; linkers in the order of their positions; H or OH if unused. Residues, ends and D or L forms follow the SMILES beside them. *: point of attachment. pNA = O=[N+]([O-])c1ccc(N*)cc1; Suc = O=C(CCC(=O)[*:2])[*:1]
Legend:
[1] = molecular target: α-chymotrypsin (CT) from bovine pancreas, CT-neutral initiator (CT(N)) (Bos taurus, UniProt P00766); experiment: Michaelis-Menten kinetics, Suc-AAPF-pNA hydrolysis, CT-neutral initiator; type: biochemical; conditions: pH 8, 37° C.; CT-neutral initiator vs native CT
Description: (§1) CT and Lysozyme were used as received. AChE and Uricase were dialyzed in 25 mM sodium phosphate (pH 7.0) using a 25 kDa molecular weight cutoff dialysis tube in a refrigerator for 24 hours and then lyophilized. Copper (II) chloride, sodium ascorbate, 1,1,4,7,10,10-hexamethyltriethylenetetramine (HMTETA), 2-bromo-2-methylpropionyl bromide, 3-(dimethylamino)-1-propylamine, N,N′-diisopropylcarbodimine, fluorescamine, acetylthiocholine iodide, 5,5′-dithiobis(2-nitrobenzoic acid) (DTNB) were purchased from Sigma Aldrich. 4-bromobutyric acid and N-hydroxysuccinimide were purchased from TCI USA (Portland, OR). Micro BCA assay kit was purchased from Thermo Fisher Scientific. […]
(§2) CT: N-succinyl-Ala-Ala-Pro-Phe-p-nitroanilide (Suc-AAPF-pNA; SEQ ID NO:1) was used as a substrate for CT. […] The initial substrate hydrolysis rate was measured in triplicate by recording the increase in absorbance at 412 nm over the first 60 seconds after mixing using a Lambda 2 Perkin Elmer ultraviolet-visible spectrometer equipped with a temperature-controlled cell holder at 37° C. Michaelis-Menten parameters were determined using nonlinear curve fitting of initial hydrolysis rate versus substrate concentration in GraphPad. […]

[2] = molecular target: α-chymotrypsin (CT) from bovine pancreas, CT-positive initiator-pSMA (Bos taurus, UniProt P00766); experiment: Michaelis-Menten kinetics, Suc-AAPF-pNA hydrolysis, CT-positive initiator-pSMA; type: biochemical; conditions: pH 8, 37° C.; CT-positive initiator-pSMA vs CT-neutral initiator-pSMA
Description: as §1
(§3) CT-pCBMA and pSMA conjugate synthesis: A solution of monomer (230 mg for CBMA and 246 mg for SMA, 1.0 mmol respectively) and CT-initiator (23 mg for neutral and 25 mg for positive initiator, 10 μmol of initiator) in 100 mM sodium phosphate (20 mL, pH 7) was sealed and bubbled with nitrogen gas in an ice bath for 30 minutes. […] Conjugate CT content was determined by BCA assay as described elsewhere (Lee et al. 2005, supra). […]
(§4) CT: N-succinyl-Ala-Ala-Pro-Phe-p-nitroanilide (Suc-AAPF-pNA; SEQ ID NO:1) was used as a substrate for CT. […] Michaelis-Menten parameters were determined using nonlinear curve fitting of initial hydrolysis rate versus substrate concentration in GraphPad. […]

[3] = molecular target: α-chymotrypsin (CT) from bovine pancreas, CT-neutral initiator-pCBMA (Bos taurus, UniProt P00766); experiment: Michaelis-Menten kinetics, Suc-AAPF-pNA hydrolysis, CT-neutral initiator-pCBMA; type: biochemical; conditions: pH 8, 37° C.
Description: as §1, §3, §4

[4] = molecular target: α-chymotrypsin (CT) from bovine pancreas, CT-positive initiator (CT(+)) (Bos taurus, UniProt P00766); experiment: Michaelis-Menten kinetics, Suc-AAPF-pNA hydrolysis, CT-positive initiator; type: biochemical; conditions: pH 8, 37° C.; CT-positive initiator vs native CT
Description: as §1, §2

[5] = molecular target: α-chymotrypsin (CT) from bovine pancreas, CT-positive initiator-pCBMA (Bos taurus, UniProt P00766); experiment: Michaelis-Menten kinetics, Suc-AAPF-pNA hydrolysis, CT-positive initiator-pCBMA; type: biochemical; conditions: pH 8, 37° C.
Description: as §1, §3, §4

[6] = molecular target: α-chymotrypsin (CT) from bovine pancreas, CT-mixed initiator (average of 9 neutral and 5 positive initiators per CT) (Bos taurus, UniProt P00766); experiment: Michaelis-Menten kinetics, Suc-AAPF-pNA hydrolysis, CT-mixed initiator; type: biochemical; conditions: pH 8, 37° C.
Description: (§5) CT and Lysozyme were used as received. AChE and Uricase were dialyzed in 25 mM sodium phosphate (pH 7.0) using a 25 kDa molecular weight cutoff dialysis tube in a refrigerator for 24 hours and then lyophilized. Copper (II) chloride, sodium ascorbate, 1,1,4,7,10,10-hexamethyltriethylenetetramine (HMTETA), 2-bromo-2-methylpropionyl bromide, 3-(dimethylamino)-1-propylamine, N,N′-diisopropylcarbodimine, fluorescamine, acetylthiocholine iodide, 5,5′-dithiobis(2-nitrobenzoic acid) (DTNB) were purchased from Sigma Aldrich. 4-bromobutyric acid and N-hydroxysuccinimide were purchased from TCI USA (Portland, OR). Micro BCA assay kit was purchased from Thermo Fisher Scientific.
as §2, with “CT. Substrate (0-20 mg/mL in DMSO, 30 μL) was added to a 1.5 mL cuvette with sodium phosphate buffer (pH 8, 100 mM).” for “CT.”

[7] = molecular target: acetylcholinesterase (AChE) from Electrophorus electricus, positive initiator (+) (Electrophorus electricus, UniProt O42275); experiment: Michaelis-Menten kinetics, acetylthiocholine iodide hydrolysis, AChE-positive initiator; type: biochemical, Electrophorus electricus (electric eel); conditions: AChE-positive initiator vs AChE-neutral initiator
Chain of acetylcholinesterase (AChE) from Electrophorus electricus, positive initiator (+) (O42275 24-633): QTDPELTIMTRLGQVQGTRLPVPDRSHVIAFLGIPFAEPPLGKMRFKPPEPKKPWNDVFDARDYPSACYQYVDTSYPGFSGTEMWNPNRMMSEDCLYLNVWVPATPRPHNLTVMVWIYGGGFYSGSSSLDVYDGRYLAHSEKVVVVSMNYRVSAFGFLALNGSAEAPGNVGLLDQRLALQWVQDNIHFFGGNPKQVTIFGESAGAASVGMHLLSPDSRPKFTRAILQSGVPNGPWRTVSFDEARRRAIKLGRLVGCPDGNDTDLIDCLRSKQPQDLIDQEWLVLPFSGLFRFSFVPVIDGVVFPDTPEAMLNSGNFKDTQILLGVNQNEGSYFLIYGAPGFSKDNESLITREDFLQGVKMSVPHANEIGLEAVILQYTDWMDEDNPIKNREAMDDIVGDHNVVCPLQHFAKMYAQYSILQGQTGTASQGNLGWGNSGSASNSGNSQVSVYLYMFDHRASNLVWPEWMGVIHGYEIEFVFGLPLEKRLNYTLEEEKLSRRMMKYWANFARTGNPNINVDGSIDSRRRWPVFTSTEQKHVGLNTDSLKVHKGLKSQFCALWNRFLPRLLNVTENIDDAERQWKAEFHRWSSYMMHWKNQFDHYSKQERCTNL
Description: as §5
(§6) AChE: 100 μL of NHS-functionalized ATRP initiator solution in DMSO (12.7 μmol, 4.3 mg for neutral and 5.5 mg for positive initiator, respectively) was added to AChE solution (7 mg of AChE in 10 mL of 100 mM phosphate (pH 8.0)) and stirred at room temperature for 2 hours. […] The concentration of AChE initiator conjugates was determined using a Micro BCA Assay Kit.
AChE: Acetylthiocholine iodide (0-100 μL of 10 mM in 100 mM sodium phosphate buffer (pH 7.4)) and 10 μL of DTNB solution (50 mM in DMSO) was mixed with 100 mM sodium phosphate (980-880 μL, pH 7.4). […] Michaelis-Menten parameters were determined by nonlinear curve fitting of initial rate versus substrate concentration plots using Prism 7 software (GraphPad).

[8] = molecular target: acetylcholinesterase (AChE) from Electrophorus electricus, neutral initiator (N)-pSMA (Electrophorus electricus, UniProt O42275); experiment: Michaelis-Menten kinetics, acetylthiocholine iodide hydrolysis, AChE (N)-pSMA; type: biochemical, Electrophorus electricus (electric eel); conditions: pH 7.4, 37° C., DTNB
Chain of acetylcholinesterase (AChE) from Electrophorus electricus, neutral initiator (N)-pSMA (O42275 24-633): as above
Description: as §5, §6, §3
AChE: Acetylthiocholine iodide (0-100 μL of 10 mM in 100 mM sodium phosphate buffer (pH 7.4)) and 10 μL of DTNB solution (50 mM in DMSO) was mixed with 100 mM sodium phosphate (980-880 μL, pH 7.4). […] The initial rate was monitored by recording the increasing in absorbance as 412 nm using an UV-VIS absorbance spectrometer with a temperature controlled cell folder at 37° C. Michaelis-Menten parameters were determined by nonlinear curve fitting of initial rate versus substrate concentration plots using Prism 7 software (GraphPad).

Structure (SMILES) | change in KM versus native CT [1] | overall activity (kcat and KM) versus CT-neutral initiator-pSMA [2] | kcat/KM [3] | change in KM versus native CT [4] | kcat/KM ([5]; CT-positive initiator-pCBMA) | overall catalytic efficiency versus native CT ([5]; CT-positive initiator-pCBMA vs native CT) | kcat [6] | kcat/KM [6] | KM increase versus AChE-neutral initiator [7] | KM [8] | kcat [8] | kcat/KM [8]
C[C@H](NC(=O)CCC(=O)O)C(=O)N[C@@H](C)C(=O)N1CCC[C@H]1C(=O)N[C@@H](Cc1ccccc1)C(=O)Nc1ccc([N+](=O)[O-])cc1 [Suc-AAPF-pNA, N-succinyl-Ala-Ala-Pro-Phe-p-nitroanilide] (Suc-AAPF-pNA) | decrease in KM by half | ~20 fold | 300000 ± 10000 M⁻¹ s⁻¹ | decrease in KM by half | 420000 ± 20000 M⁻¹ s⁻¹ | nearly double that of native CT | 16.7 ± 0.4 s⁻¹ | 200000 ± 10000 M⁻¹ s⁻¹ |  |  |  | 
CC(=O)SCC[N+](C)(C)C.[I-] [acetylthiocholine iodide] |  |  |  |  |  |  |  |  | about 2.4 × | undetectable | undetectable | undetectable

— patent US12053529B2, “Amino-reactive positively charged ATRP initiators that maintain their positive charge during synthesis of biomacro-initiators” (Carnegie Mellon University, priority 2018, dated 2024)
